Read-outs that look alike come from different tables or passages of the source.
How the values were obtained:
cerebral noradrenaline = conditions: cited from earlier work
[1] = acute toxicity in the rat (LD50) by the oral or intraperitoneal route; conditions: in vivo; for selectivity ratio: read-out: A/B (LD50/ID50, therapeutic index)
From the text: the acute toxicity, expressed as LD50 in the rat by the oral or intraperitoneal route (A);
the ratio between the acute toxicity and the anorectic activity which expresses the therapeutic index related to the acute toxicity (A/B).

[2] = system: food intake (female rats); experiment: anorectic activity by the food intake method in the rat; format: in vivo; conditions: food taken in first hour, read-out: ID50 (dose inhibiting by 50% the food intake)
Procedure: The anorectic activity was assessed by the food intake method in the rat. Female rats weighing 200 g are used, which were trained for 10 days to eat during a period of 4 hours and selected on the eighth day. At the end of the tenth day, the randomised animals were divided into a "control group" treated with the vehicle alone, and into several "treated groups". The treatment was effected by intraperitoneal or by oral route 30 minutes or 1 hour, respectively, before the presentation of the food and the amount of food taken in the course of the first hour was then measured.
the anorectic activity, expressed as oral or intraperitoneal dose inhibiting by 50% the food intake (ID50, B);

cerebral serotonin [3] = experiment: cerebral rates of serotonin compared to controls, according to Curzon and Green; format: in vivo; conditions: for cerebral rates of serotonin, % compared to controls: two hours after administration
From the text: Table II hereinbelow summarizes the percent cerebral rates of serotonin, compared to the controls, after intraperitoneal or oral administration of four representative compounds of the present invention. The determination of the cerebral rates, according to Curzon and Green (Br. J. Pharmacol. 1970, 39, 653) was made two hours after the administration. Fenfluramine was used as reference compound.

cerebral serotonin [4] = conditions: doses very close to the anorectic dose; Arch. Intern. Pharmacodyn. Ther. 1967; cited from earlier work
serotonin release = conditions: central neurons; cited from earlier work
central nervous system = conditions: in vivo; cited from earlier work
[5] = ip, 1 h, i.p., 30 minutes before food

Compound | selectivity ratio ([1]; os) | LD50 ([1]; po, os) [mg/kg] | ED50 ([2]; po, os, 1 hour before food) [mg/kg] | further results
CC(N)Cc1ccccc1 (stereo not drawn) [amphetamine] | – | – | – | noradrenaline release mediating anorexia (background) (cerebral noradrenaline): seems to be mediated by the release of cerebral noradrenaline
Cl.FC(F)(F)c1cccc(C2=CCN(CCc3ccccn3)CC2)c1 [Example 1, 1-[2-(2-pyridyl)ethyl]-4-(3-trifluoromethylphenyl)-1,2,3,6-tetrahydropyridine hydrochloride] | 56 | 195 | 3.49 | LD50 ([1]; ip): 108 mg/kg; selectivity ratio ([1]; ip): 54.2; ED50 [2, 5]: 1.99 mg/kg; cerebral rates of serotonin, % compared to controls (cerebral serotonin [3]; i.p., 1.625 mg/kg): 93 ± 7%; cerebral rates of serotonin, % compared to controls (cerebral serotonin [3]; i.p., 3.25 mg/kg): 85 ± 1%; cerebral rates of serotonin, % compared to controls (cerebral serotonin [3]; i.p., 7.5 mg/kg, °° P < 0.01): 98 ± 10%
Cc1cccc(CCN2CC=C(c3cccc(C(F)(F)F)c3)CC2)n1.Cl [Example 4, 1-[2-(6-methyl-2-pyridyl)ethyl]-4-(3-trifluoromethylphenyl)-1,2,3,6-tetrahydropyridine hydrochloride] | 35.6 | 202 | 5.69 | cerebral rates of serotonin, % compared to controls (cerebral serotonin [3]; os, 5.69 mg/kg): 119 ± 6%
Cl.FC(F)(F)c1cccc(C2=CCN(CCc3ccncc3)CC2)c1 [Example 3, 1-[2-(4-pyridyl)ethyl]-4-(3-trifluoromethylphenyl)-1,2,3,6-tetrahydropyridine hydrochloride] | 49.6 | 289 | 5.82 | –
Cl.FC(F)(F)c1cccc(C2=CCN(CCc3cccnc3)CC2)c1 [Example 2, 1-[2-(3-pyridyl)ethyl]-4-(3-trifluoromethylphenyl)-1,2,3,6-tetrahydropyridine hydrochloride] | 128 | 227 | 1.77 | cerebral rates of serotonin, % compared to controls (cerebral serotonin [3]; os, 2.0 mg/kg): 113 ± 5%
Cl.FC(F)(F)c1cccc(C2=CCN(CCc3cccc4ccccc34)CC2)c1 [Example 6, 1-[2-(1-naphthyl)ethyl]-4-(3-trifluoromethylphenyl)-1,2,3,6-tetrahydropyridine hydrochloride] | > 126 | > 600 | 4.75 | –
CCNC(C)Cc1cccc(C(F)(F)F)c1 (stereo not drawn) [Fenfluramine, reference compound] | – | 231 | 2.51 | cerebral rates of serotonin (background) (cerebral serotonin [4]): significant reduction in the cerebral rates of serotonin; serotonin release (background) (serotonin release): release of the endogenous serotonin of the central neurons; anorectic activity (background) (central nervous system): excellent anorectic activity; sedative/stimulant action (background) (central nervous system): some sedative action; LD50 ([1]; ip): 102 mg/kg; ED50 [2, 5]: 1.58 mg/kg; cerebral serotonin depletion/reduction (cerebral serotonin [3]; in vivo): significant reduction of the cerebral serotonin
Cl.FC(F)(F)c1cccc(C2=CCN(CCc3ccc4ccccc4c3)CC2)c1 [Example 7, 1-[2-(2-naphthyl)ethyl]-4-(3-trifluoromethylphenyl)-1,2,3,6-tetrahydropyridine hydrochloride] | > 76.6 | > 800 | 10.4 | –
Cl.[O-][n+]1ccc(CCN2CC=C(c3cccc(C(F)(F)F)c3)CC2)cc1 [Example 5, 4-[2-[4-(3-trifluoromethylphenyl)-1,2,3,6-tetrahydropyrid-1-yl]ethyl]pyridine 1-oxide hydrochloride] | ~176 | ~300 | 1.71 | –

— patent publication US4521428A, “Anorexigenic trifluoromethylphenyltetrahydropyridines and pharmaceutical compositions containing them” (Sanofi, priority 1982, dated 1985)
